Values of other authors as cited in patent publication US20100210643A1, “sGC STIMULATORS, sGC ACTIVATORS AND COMBINATIONS FOR THE TREATMENT OF UROLOGICAL DISORDERS” (BAYER SCHERING PHARMA AKTIENGESELLSCHAFT, priority 2007, published 2010).

Assays:
[1] = test system: bladder of female Guinea Pigs; conditions: literature (Gillespie 2004)
[2] = test system: pre-contracted human prostate tissue; conditions: in vitro; literature (Uckert 2001)

SMILES	relaxation of bladder [1]	relaxation of pre-contracted human prostate tissue [2]
CC(C)Cn1c(=O)n(C)c(=O)c2[nH]cnc21 [IBMX]	could relax	
CCCOc1ccccc1-c1nc2nn[nH]c2c(=O)[nH]1 [Zaprinast]	ineffective	able to relax
